The results in this text go back to patent US20240246942A1, “KINASE INHIBITORS FOR THE TREATMENT OF NEURODEGENERATIVE DISEASES” (priority 2020, published 2024).

The structures appear in SMILES notation.

Holding throughout (assay): biochemical
The target of experiment [1] is T1, panel of 374 wild-type kinases (Homo sapiens, UniProt Q15746).
T1 construct: purchased Reaction Biology Corporation
The conditions noted are these: read-out: % Enzyme Activity (relative to DMSO controls), MLCK/MYLK.

The target in experiment [2] is T2, panel of 374 wild-type kinases (Homo sapiens, UniProt Q16832).
T2 construct: purchased Reaction Biology Corporation
T2 sequence (Q16832 22-855): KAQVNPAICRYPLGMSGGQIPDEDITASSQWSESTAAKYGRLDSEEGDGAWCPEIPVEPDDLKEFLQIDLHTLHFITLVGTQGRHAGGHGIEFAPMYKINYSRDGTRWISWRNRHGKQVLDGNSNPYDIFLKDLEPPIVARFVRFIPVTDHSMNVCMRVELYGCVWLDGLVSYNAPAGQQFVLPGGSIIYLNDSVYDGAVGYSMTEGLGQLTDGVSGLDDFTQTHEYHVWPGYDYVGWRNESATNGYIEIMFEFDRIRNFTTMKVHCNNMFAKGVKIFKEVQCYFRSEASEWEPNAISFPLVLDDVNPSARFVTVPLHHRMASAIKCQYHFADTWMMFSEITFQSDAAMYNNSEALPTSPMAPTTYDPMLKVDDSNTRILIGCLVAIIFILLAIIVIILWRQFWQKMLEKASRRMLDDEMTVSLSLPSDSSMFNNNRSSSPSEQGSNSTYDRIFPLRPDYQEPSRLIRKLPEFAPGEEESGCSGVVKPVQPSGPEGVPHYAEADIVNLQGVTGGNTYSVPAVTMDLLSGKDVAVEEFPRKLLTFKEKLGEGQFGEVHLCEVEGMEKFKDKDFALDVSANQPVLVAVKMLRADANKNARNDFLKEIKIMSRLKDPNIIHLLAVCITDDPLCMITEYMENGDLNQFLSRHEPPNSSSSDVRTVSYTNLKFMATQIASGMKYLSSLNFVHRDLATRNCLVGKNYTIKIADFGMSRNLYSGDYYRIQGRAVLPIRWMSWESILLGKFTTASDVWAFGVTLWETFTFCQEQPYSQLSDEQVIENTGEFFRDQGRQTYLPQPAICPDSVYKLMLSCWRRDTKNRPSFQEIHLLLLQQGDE
To be noted: read-out: % Enzyme Activity (relative to DMSO controls), DDR2.

Experiment [3] deals with T3, panel of 374 wild-type kinases (Homo sapiens, UniProt Q9Y5S2).
T3 construct: purchased Reaction Biology Corporation
T3 sequence (Q9Y5S2 whole entry): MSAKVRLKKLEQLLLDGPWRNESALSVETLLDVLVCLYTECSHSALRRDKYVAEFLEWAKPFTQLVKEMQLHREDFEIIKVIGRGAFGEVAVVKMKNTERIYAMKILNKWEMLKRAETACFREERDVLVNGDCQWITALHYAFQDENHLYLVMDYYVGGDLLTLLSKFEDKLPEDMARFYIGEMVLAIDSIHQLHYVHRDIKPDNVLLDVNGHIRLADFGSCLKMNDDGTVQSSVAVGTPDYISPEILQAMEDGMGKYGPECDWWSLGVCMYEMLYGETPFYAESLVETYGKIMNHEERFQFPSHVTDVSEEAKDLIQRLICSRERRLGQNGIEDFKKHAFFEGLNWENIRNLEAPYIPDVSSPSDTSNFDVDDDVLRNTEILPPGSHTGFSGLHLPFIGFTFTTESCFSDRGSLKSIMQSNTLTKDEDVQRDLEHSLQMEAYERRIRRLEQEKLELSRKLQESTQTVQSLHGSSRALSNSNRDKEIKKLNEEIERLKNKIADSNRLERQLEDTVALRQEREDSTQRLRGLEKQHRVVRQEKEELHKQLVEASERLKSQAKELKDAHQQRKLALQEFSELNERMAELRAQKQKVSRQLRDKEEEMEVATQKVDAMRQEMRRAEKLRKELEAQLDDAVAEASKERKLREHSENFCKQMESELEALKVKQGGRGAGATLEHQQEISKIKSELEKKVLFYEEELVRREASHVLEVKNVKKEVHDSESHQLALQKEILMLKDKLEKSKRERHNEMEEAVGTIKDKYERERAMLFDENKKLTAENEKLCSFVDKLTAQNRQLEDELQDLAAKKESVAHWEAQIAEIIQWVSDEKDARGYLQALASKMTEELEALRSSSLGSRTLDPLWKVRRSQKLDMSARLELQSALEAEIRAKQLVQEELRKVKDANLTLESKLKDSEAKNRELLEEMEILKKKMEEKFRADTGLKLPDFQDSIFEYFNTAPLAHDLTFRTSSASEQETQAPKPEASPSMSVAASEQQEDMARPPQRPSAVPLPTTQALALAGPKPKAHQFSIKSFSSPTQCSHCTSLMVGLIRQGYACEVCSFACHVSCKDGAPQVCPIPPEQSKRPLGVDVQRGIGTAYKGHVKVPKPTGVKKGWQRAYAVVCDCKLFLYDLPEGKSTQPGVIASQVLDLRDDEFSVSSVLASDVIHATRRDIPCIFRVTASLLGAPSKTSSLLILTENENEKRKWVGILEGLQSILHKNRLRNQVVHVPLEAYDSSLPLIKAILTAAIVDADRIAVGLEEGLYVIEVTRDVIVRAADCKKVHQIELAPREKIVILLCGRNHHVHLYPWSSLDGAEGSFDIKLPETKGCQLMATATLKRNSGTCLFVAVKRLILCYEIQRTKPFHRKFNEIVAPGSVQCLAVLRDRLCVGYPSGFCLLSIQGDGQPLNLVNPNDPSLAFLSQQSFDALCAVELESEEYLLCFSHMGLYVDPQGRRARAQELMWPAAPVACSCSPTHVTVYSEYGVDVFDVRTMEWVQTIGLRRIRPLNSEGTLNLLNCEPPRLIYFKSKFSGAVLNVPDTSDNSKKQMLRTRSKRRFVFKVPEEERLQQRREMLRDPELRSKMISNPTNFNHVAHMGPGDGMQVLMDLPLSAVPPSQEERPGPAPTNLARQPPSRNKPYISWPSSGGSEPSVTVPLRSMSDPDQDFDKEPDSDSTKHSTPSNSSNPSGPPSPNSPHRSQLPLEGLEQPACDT
The conditions noted are these: read-out: % Enzyme Activity (relative to DMSO controls), MRCKb/CDC42BPB.

Experiment [4] concerns the target T4, panel of 374 wild-type kinases (Homo sapiens, UniProt Q9Y6M4).
T4 construct: purchased Reaction Biology Corporation
To be noted: read-out: % Enzyme Activity (relative to DMSO controls), CK1g3.

For experiment [5], the target named is T5, panel of 374 wild-type kinases (Homo sapiens, UniProt O15264).
T5 construct: purchased Reaction Biology Corporation
T5 sequence (O15264 1-365): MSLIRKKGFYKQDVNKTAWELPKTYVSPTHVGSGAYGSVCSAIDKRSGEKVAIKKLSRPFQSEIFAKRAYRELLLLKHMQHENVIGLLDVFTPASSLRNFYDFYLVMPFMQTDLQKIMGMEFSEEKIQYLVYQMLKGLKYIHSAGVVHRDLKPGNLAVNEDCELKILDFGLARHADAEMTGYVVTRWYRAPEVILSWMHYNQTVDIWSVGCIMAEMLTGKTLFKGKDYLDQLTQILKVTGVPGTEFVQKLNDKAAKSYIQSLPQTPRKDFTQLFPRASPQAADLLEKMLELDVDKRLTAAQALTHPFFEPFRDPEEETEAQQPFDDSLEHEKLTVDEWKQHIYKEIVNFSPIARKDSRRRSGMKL
To be noted: read-out: % Enzyme Activity (relative to DMSO controls), kinase P38d/MAPK13.

The target in experiment [6] is T6, panel of 374 wild-type kinases (Homo sapiens, UniProt Q9UPZ9).
T6 construct: purchased Reaction Biology Corporation
T6 sequence (Q9UPZ9 1-632): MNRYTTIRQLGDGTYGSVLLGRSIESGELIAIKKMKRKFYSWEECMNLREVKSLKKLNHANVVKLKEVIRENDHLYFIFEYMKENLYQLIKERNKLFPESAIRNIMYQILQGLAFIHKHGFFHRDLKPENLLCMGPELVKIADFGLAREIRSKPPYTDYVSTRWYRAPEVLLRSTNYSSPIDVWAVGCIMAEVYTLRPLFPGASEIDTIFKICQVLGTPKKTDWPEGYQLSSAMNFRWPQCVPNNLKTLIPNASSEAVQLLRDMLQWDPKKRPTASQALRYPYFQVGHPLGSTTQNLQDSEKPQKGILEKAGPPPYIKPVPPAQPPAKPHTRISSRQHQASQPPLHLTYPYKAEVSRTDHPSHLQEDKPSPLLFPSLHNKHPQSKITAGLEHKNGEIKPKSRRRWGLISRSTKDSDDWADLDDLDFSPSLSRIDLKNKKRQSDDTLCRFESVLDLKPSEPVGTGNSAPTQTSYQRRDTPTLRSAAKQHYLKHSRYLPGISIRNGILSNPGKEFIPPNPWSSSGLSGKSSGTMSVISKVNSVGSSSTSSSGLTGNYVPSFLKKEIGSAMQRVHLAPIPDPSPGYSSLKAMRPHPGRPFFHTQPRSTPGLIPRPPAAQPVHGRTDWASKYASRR
The conditions noted are these: read-out: % Enzyme Activity (relative to DMSO controls), LCK2/ICK.

In experiment [7] the target is T7, panel of 374 wild-type kinases (Homo sapiens, UniProt P42680).
T7 construct: purchased Reaction Biology Corporation
T7 sequence (P42680 1-631): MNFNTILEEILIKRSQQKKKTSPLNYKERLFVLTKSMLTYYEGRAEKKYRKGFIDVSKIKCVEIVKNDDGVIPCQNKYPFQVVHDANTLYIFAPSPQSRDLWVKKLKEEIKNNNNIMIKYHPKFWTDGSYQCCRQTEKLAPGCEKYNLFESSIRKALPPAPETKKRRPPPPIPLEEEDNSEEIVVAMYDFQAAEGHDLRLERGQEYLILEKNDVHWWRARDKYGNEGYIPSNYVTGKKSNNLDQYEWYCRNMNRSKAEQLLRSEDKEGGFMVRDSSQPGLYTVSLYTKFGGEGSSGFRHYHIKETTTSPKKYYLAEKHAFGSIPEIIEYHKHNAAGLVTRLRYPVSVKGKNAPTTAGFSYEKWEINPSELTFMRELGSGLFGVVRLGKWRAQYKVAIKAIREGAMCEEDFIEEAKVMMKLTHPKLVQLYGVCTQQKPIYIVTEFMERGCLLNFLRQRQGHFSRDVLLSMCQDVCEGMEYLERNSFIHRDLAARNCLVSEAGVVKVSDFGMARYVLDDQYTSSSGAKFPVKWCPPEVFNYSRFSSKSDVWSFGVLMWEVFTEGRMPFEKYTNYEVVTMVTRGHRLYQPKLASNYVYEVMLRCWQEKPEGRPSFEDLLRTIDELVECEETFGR
The conditions noted are these: read-out: % Enzyme Activity (relative to DMSO controls), kinase TEC.

T1 sequence (Q15746 whole entry): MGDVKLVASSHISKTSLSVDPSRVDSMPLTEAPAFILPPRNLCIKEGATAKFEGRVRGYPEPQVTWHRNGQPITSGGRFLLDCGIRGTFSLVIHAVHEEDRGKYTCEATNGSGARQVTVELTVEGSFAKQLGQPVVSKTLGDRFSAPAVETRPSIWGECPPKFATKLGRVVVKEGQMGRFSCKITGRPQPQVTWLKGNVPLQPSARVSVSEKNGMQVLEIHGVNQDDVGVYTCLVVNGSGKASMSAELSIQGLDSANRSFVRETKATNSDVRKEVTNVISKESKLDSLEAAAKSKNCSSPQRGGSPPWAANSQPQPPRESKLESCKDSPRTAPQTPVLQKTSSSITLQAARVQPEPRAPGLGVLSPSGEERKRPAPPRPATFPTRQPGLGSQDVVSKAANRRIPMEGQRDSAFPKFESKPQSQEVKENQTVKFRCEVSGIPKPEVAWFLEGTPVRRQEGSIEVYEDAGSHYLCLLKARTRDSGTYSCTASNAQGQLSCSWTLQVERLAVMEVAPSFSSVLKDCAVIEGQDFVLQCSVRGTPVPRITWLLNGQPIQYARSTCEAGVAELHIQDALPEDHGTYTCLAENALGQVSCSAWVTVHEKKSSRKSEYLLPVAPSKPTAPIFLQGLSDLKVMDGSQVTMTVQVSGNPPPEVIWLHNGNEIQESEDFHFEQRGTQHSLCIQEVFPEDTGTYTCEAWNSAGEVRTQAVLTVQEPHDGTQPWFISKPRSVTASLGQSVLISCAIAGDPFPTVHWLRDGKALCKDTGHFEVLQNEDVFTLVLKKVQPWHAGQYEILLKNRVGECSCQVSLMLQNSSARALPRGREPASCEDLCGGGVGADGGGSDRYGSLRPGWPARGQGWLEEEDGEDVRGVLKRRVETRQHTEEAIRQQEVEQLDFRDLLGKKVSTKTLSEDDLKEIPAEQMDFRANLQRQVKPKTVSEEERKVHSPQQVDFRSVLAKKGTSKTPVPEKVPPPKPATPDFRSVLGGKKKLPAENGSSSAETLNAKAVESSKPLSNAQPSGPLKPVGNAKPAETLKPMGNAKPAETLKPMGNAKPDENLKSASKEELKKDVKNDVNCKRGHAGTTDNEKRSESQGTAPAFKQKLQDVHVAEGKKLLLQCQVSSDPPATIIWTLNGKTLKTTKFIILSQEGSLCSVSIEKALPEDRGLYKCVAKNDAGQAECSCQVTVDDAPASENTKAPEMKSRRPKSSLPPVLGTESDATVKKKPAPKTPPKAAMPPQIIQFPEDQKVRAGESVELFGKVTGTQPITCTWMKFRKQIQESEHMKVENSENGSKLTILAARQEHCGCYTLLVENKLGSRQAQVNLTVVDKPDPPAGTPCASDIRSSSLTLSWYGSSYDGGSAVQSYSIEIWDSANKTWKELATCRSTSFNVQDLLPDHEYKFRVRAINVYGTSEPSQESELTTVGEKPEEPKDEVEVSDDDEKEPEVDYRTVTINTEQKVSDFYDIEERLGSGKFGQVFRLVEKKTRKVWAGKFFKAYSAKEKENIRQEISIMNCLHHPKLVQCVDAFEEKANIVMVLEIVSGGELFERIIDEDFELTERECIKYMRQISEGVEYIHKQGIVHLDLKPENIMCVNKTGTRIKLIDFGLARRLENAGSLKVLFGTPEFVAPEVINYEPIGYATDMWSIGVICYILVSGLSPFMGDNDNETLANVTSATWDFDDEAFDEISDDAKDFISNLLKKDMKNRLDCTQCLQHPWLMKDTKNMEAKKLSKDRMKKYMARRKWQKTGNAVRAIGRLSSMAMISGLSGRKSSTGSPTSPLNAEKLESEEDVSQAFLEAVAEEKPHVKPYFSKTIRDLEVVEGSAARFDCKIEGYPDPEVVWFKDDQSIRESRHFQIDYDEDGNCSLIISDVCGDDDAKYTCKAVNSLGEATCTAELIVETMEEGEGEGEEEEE
T4 sequence (Q9Y6M4 whole entry): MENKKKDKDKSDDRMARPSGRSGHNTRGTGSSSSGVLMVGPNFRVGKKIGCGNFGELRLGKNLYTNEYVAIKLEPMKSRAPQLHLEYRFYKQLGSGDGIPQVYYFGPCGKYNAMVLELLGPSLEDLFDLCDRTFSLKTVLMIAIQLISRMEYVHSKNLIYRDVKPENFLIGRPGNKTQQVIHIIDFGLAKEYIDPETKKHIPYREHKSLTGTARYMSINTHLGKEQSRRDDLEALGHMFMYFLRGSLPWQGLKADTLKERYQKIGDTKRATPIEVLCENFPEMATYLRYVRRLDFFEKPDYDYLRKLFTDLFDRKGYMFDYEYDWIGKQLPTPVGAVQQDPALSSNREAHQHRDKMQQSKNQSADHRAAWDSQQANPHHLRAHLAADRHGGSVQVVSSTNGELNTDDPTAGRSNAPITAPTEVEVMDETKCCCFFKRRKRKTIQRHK

Turning to `O=C(Nc1cnn(-c2csc(C(=O)NC3COC3)c2)c1)Nc1ccccc1Cl` [Compound 17, 4-(4-(3-(2-chlorophenyl)ureido)-1H-pyrazol-1-yl)-N-(oxetan-3-yl)thiophene-2-carboxamide], the remaining activity at 5 µM in experiment [1] is 97.5%; in experiment [2], 99.8%; in experiment [3], 97.1%; in experiment [4] it was 103%; in experiment [5], 122%; in experiment [6], 112%. Besides, in experiment [7], the remaining activity at 5 µM amounted to 97.2%.

Turning to `O=C(Nc1cnn(-c2csc(C(=O)NC3COC3)c2)c1)Nc1c(F)cccc1Cl` [Compound 25, 4-(4-(3-(2-chloro-6-fluorophenyl)ureido)-1H-pyrazol-1-yl)-N-(oxetan-3-yl)thiophene-2-carboxamide], the remaining activity at 5 µM came to 95.9% in experiment [1]; 96.6% in experiment [2]; 89% in experiment [3]; 92.6% in experiment [4]; 98.4% in experiment [5]; 101% in experiment [6]. Besides, the remaining activity at 5 µM in experiment [7] came to 97.7%.

For the molecule `Cc1sc(C(=O)NC2COC2)cc1-n1cc(NC(=O)Nc2c(F)cccc2Cl)cn1` [Compound 27, 4-(4-(3-(2-chloro-6-fluorophenyl)ureido)-1H-pyrazol-1-yl)-5-methyl-N-(oxetan-3-yl)thiophene-2-carboxamide], the remaining activity at 10 µM came out at 103% in experiment [1] (10 uM); 111% in experiment [2] (10 uM); 112% in experiment [3] (10 uM); 91.3% in experiment [4] (10 uM); 89.2% in experiment [5] (10 uM); 100% in experiment [6] (10 uM). Also, in experiment [7] (10 uM), the remaining activity at 10 µM was 91.1%.
